Laboratory results from US11530226B2, “Azepane inhibitors of menin-MLL interaction” (Janssen Pharmaceutica NV, priority 2016, dated 2022).
Structures can show the parent of a compound that is named as a salt.

How the values were obtained:
[1] = target: T1, terbium chelate-labeled menin / FITC-MBM1 peptide (Menin/MLL) (Homo sapiens, UniProt O00255, T541A); test: Menin/MLL homogenous time-resolved fluorescence (HTRF) assay; format: binding; settings: read-out: (2) Menin HTRF assay (IC50 (nM))
T1 construct: Menin (a. a. l-610-6×his tag) was labeled with terbium cryptate as follows
T1 sequence (O00255 with tags, fused parts or gaps T541A): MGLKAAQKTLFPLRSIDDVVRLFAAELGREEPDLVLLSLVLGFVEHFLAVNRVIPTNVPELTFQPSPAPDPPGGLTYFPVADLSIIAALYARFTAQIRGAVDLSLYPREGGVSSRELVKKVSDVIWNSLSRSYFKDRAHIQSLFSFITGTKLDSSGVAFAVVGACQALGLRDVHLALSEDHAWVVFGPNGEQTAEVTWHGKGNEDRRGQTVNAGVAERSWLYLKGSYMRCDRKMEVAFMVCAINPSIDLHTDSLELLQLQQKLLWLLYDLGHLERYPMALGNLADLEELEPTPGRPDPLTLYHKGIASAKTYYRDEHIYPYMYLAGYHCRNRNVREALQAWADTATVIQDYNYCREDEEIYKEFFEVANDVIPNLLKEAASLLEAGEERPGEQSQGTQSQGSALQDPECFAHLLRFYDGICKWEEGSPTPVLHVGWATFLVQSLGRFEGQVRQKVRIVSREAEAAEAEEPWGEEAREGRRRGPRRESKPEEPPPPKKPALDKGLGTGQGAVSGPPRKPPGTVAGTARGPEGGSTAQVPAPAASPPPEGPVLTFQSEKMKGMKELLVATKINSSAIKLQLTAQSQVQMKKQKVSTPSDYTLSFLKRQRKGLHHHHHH
Description: 2) Menin/MLL Homogenous Time-Resolved Fluorescence (HTRF) Assay
To an untreated, white 384-well microtiter plate was added 40 nL 200× test compound in DMSO and 4 μL 2× terbium chelate-labeled menin (vide infra for preparation) in assay buffer (40 mM Tris .HCl, pH 7.5, 50 mM NaCl, 1 mM DTT and 0.05% Pluronic F-127). After incubation of test compound and terbium chelate-labeled menin for 5 min at ambient temperature, 4 μL 2×FITC-MBM1 peptide (FITC-P-alanine-SARWRFPARPGT-NH2) in assay buffer was added, the microtiter plate centrifuged at 1000 rpm for 1 min and the assay mixtures incubated for 15 min at ambient temperature. The relative amount of menin ⋅FITC-MBM1 complex present in an assay mixture is determined by measuring the homogenous time-resolved fluorescence (HTRF) of the terbium/FITC donor/acceptor fluorphore pair using a BMG Pherastar plate reader (ex. 337 nm/terbium cm. 490 nm/FITC cm. 520 nm) at ambient temperature. The degree of fluorescence resonance energy transfer (the HTRF value) is expressed as the ratio of the fluorescence emission intensities of the FITC and terbium fluorophores (P^m 520 nm//F^em 490 nm). The final concentrations of reagents in the binding assay are 100 pM terbium chelate-labeled menin, 75 nM FITC-MBM1 peptide and 0.5%) DMSO in assay buffer. Dose-response titrations of test compounds are conducted using an 11 point, three-fold serial dilution scheme, starting typically at 25 μM.
Compound potencies were determined by first calculating % inhibition at each compound concentration according to equation 1: % inhibition=((HC−LC)−(HTRF^compound−LC))/(HC−LC))*100 (Eqn 1)
Where LC and HC are the HTRF values of the assay in the presence or absence of a saturating concentration of a compound that competes with FITC-MBM1 for binding to menin, and HTRF^compound is the measured HTRF value in the presence of the test compound. HC and LC HTRF values represent an average of at least 16 replicates per plate.
Where Bottom and Top are the lower and upper asymptotes of the dose-response curve, respectively, IC50 is the concentration of compound that yields 50% inhibition of signal and h is the Hill coefficient.
Preparation of Terbium cryptate labeling of Menin: Menin (a. a. l-610-6×his tag) was labeled with terbium cryptate as follows. 2 mg of Menin was buffer exchanged into 1× phosphate buffered saline. 16 uM Menin was incubated with 4-fold molar excess NHS-terbium cryptate (Cisbio Bioassays, Bedford, Mass.) for 2 hours at room temperature. The labeled protein was purified away from free label by running the reaction over a Superdex 200 Increase 10/300 GL column at 0.75 ml/min. Peak fractions were collected, aliquoted and frozen at −80° C.

[2] = system: MV-4-1 1 cells (MLL-AF4); test: Proliferation assay (spheroid-like growth, 8 d, live-cell imaging), MV-4-11; format: cell-based, human; settings: Homo sapiens, MV4-11, 192 h, MV-4-11 cells, absolute IC50 from AUC of confluence, read-out: (3) Spheroid assay MV-4-11 (IC50 (μM))
Description: The anti-proliferative effect of menin/MLL protein/protein interaction inhibitor test compounds was assessed in human leukemia cell lines. The cell lines MV-4-1 1 and MOLM14 harbor MEL translocations and express the MEL fusion proteins MLL-AF4 and MLL-AF9, respectively, as well as the wildtype protein from the second allele. […] K562 was used as a control cell line containing two MLL wildtype alleles in order to exclude compounds that display general cytotoxic effects.
MV-4-1 1 and MOLM14 were cultured in RPMI-1640 (Sigma Aldrich) supplemented with 10% fetal bovine serum (HyClone), 2 mM L-glutamine (Sigma Aldrich) and 50 μg/ml gentamycin (Gibco). K562 were propagated in RPMI-1640 (Sigma Aldrich) supplemented with 20% fetal bovine serum (HyClone), 2 mM L-glutamine (Sigma Aldrich) and 50 μg/ml gentamycin (Gibco).
In order to assess the anti-proliferative effects, 1,500 MV-4-1 1, 300 MOLM14 or 750 K562 cells were seeded in 200 μl media per well in 96-well round bottom, ultra-low attachment plates (Costar, catalogue number 7007). Cell seeding numbers were chosen based on growth curves to ensure linear growth throughout the experiment. Test compounds were added at different concentrations and the DMSO content was normalized to 0.3%>. Cells were incubated for 8d at 37° C. and 5% C02. Spheroid like growth was monitored in real-time by live-cell imaging (IncuCyteZOOM, Essenbio, 4× objective) acquiring one image every four hours for 8d. Confluence (%) as a measure of spheroid size was determined using an integrated analysis tool.
In order to determine the cumulative effect of the test compounds over time, the area under the curve (AUC) in a plot of confluence against time was calculated. Confluence at the beginning of the experiment (t=0) was used as baseline for the AUC calculation.
Absolute IC50 values were calculated according to the following procedure: % Control=(AUC sample/AUC control)*100 AUC control=mean AUC of control values(cells without compound/DMSO as vehicle control)
A non-linear curve fit was applied using the least squares (ordinary) fit method to the plot of % control versus compound concentration. Based on this, the absolute IC50 value (half maximal inhibitory concentration of the test compound causing an anti-proliferative effect of 50% relative to the vehicle control) was calculated.

Structure (SMILES)	melting point [°C]	IC50 [1] [nM]	IC50 [2] [µM]
FC(F)(F)Cc1cc2c(N3CCC[C@@H](NCc4ccccc4)CC3)ncnc2s1 (as salt: HCl) [Compound 3, (R)N-benzyl-1-(6-(2,2,2-trifluoroethyl)thieno[2,3-d]pyrimidin-4-yl)azepan-4-amine]	130	–	–
FC(F)(F)Cc1cc2c(N3CCC[C@H](NCc4ccccc4)CC3)ncnc2s1 (as salt: HCl) [Compound 4, (S)-N-benzyl-1-(6-(2,2,2-trifluoroethyl)thieno[2,3-d]pyrimidin-4-yl)azepan-4-amine]	230	–	–
Cc1ccc(CNC2CCCN(c3ncnc4sc(CC(F)(F)F)cc34)CC2)cc1 (centres unmarked) (as salt: HCl) [Compound 16]	262 to 264	–	–
FC(F)CN[C@@H]1CCCN(c2ncnc3sc(CC(F)(F)F)cc23)CC1 (as salt: hydrochloride) [Compound 5]	244	–	–
FC(F)(F)Cc1cc2c(N3CCCC(NCC4CCOCC4)CC3)ncnc2s1 (centres unmarked) (as salt: hydrochloride) [Compound 55]	110	–	–
CN(C)CCCCN(Cc1cnn(C)c1)C1CCCN(c2ncnc3sc(CC(F)(F)F)cc23)CC1 (centres unmarked) (as salt: hydrochloride) [Compound 61]	110	–	–
CN(C)CCCNC1CCCN(c2ncnc3sc(CC(F)(F)F)cc23)CC1 (centres unmarked) (as salt: hydrochloride) [Compound 62]	130	–	–
FC(F)(F)Cc1cc2c(N3CCC[C@@H](NCc4cccnc4)CC3)ncnc2s1 (single isomer, unassigned) [Compound 29]	–	40	2.1
FC(F)(F)Cc1cc2c(N3CCC[C@@H](NCc4ccnnc4)CC3)ncnc2s1 (single isomer, unassigned) [Compound 30]	–	186	4.45
CC(C)[C@H](N[C@@H]1CCCN(c2ncnc3sc(CC(F)(F)F)cc23)CC1)C1CNC1 (single isomer, unassigned) [Compound 31]	–	34	1.4
CC(C)[C@H](NC1CCCN(c2ncnc3sc(CC(F)(F)F)cc23)CC1)C1CNC1 (single isomer, unassigned) [Compound 33]	–	27	2
CC(C)[C@@H](NC1CCCN(c2ncnc3sc(CC(F)(F)F)cc23)CC1)C1CNC1 (single isomer, unassigned) [Compound 34]	–	216	3.2
CC(C)[C@@H](N[C@H]1CCCN(c2ncnc3sc(CC(F)(F)F)cc23)CC1)C1CNC1 (single isomer, unassigned) [Compound 36]	–	170	2.5
Fc1ccc(CNC2CCCN(c3ncnc4sc(CC(F)(F)F)cc34)CC2)c(F)c1 (centres unmarked) [Compound 7]	–	55	1.6
Fc1ccccc1CNC1CCCN(c2ncnc3sc(CC(F)(F)F)cc23)CC1 (centres unmarked) [Compound 8]	–	64	1.6
Cc1ccc(CNC2CCCN(c3ncnc4sc(CC(F)(F)F)cc34)CC2)c(C)c1 (centres unmarked) [Compound 9]	–	36	1.4
CNCc1cccc(CNC2CCCN(c3ncnc4sc(CC(F)(F)F)cc34)CC2)c1 (centres unmarked) [Compound 17]	–	33	1.3
COc1ccc(C)cc1CNC1CCCN(c2ncnc3sc(CC(F)(F)F)cc23)CC1 (centres unmarked) [Compound 18]	–	563	4.7
Cc1ccccc1CNC1CCCN(c2ncnc3sc(CC(F)(F)F)cc23)CC1 (centres unmarked) [Compound 19]	–	41	2
Fc1cccc(CNC2CCCN(c3ncnc4sc(CC(F)(F)F)cc34)CC2)c1 (centres unmarked) [Compound 24]	–	53	1.2
FC(F)(F)Cc1cc2c(N3CCCC(OCc4ccccc4)CC3)ncnc2s1 (centres unmarked) [Compound 44]	–	137	4.3
CNC(=O)c1ccc(CNC2CCCN(c3ncnc4sc(CC(F)(F)F)cc34)CC2)cc1 (centres unmarked) [Compound 49]	–	45	1.1
OCCN(Cc1ccccc1)C1CCCN(c2ncnc3sc(CC(F)(F)F)cc23)CC1 (centres unmarked) [Compound 50]	–	185	2.3
CN(C)CCCN(Cc1ccccc1)C1CCCN(c2ncnc3sc(CC(F)(F)F)cc23)CC1 (centres unmarked) [Compound 53]	–	204	2.1

Second part, the compound after the results:

melting point [°C]	IC50 [1] [nM]	IC50 [2] [µM]	Structure (SMILES)
205	–	–	O=C(NC1CCCN(c2ncnc3sc(CC(F)(F)F)cc23)CC1)C1CC2(CC2)CN1 (centres unmarked) (as salt: hydrochloride) [Compound 10B]
–	194	2.8	CN(C)CCN(Cc1ccccc1)[C@@H]1CCCN(c2ncnc3sc(CC(F)(F)F)cc23)CC1 (single isomer, unassigned) [Compound 57A]
–	222	4.4	CN(C)CCN(Cc1ccccc1)[C@H]1CCCN(c2ncnc3sc(CC(F)(F)F)cc23)CC1 (single isomer, unassigned) [Compound 57B]
–	493	5.5	Cn1cc(CN(Cc2ccccc2)[C@@H]2CCCN(c3ncnc4sc(CC(F)(F)F)cc34)CC2)cn1 (single isomer, unassigned) [Compound 60A]
–	295	2.4	Cn1cc(CN(Cc2ccccc2)[C@H]2CCCN(c3ncnc4sc(CC(F)(F)F)cc34)CC2)cn1 (single isomer, unassigned) [Compound 60B]
–	164	3.8	Cn1cc2c(n1)CCC[C@@H]2N[C@@H]1CCCN(c2ncnc3sc(CC(F)(F)F)cc23)CC1 (single isomer, unassigned) [Compound 66B]
–	103	1.9	C[C@H]1CCN(c2ncnc3sc(CC(F)(F)F)cc23)CC[C@H]1NCc1ccccc1 (single isomer, unassigned) [Compound 68A]
–	284	4.3	Cn1ncc2c1CCC[C@@H]2N[C@@H]1CCCN(c2ncnc3sc(CC(F)(F)F)cc23)CC1 [Compound 65B]
